Results taken from paper PMC7300217, “Surfactin Like Broad Spectrum Antimicrobial Lipopeptide Co-produced With Sublancin From Bacillus subtilis Strain A52: Dual Reservoir of Bioactives” (Frontiers in Microbiology, 2020).
≈ marks a conversion by molar mass, not a printed value.

Assays:
[1] = system: C. glabrata SKSS ID (clinical isolate); experiment: MIC, microtiter plate dilution assay; type: cell-based; settings: Nakaseomyces glabratus, 5 × 10^5 CFU/ml, 37°C, OD600 after 48 h, triplicate
Procedure: (§1) The antimicrobial activity was tested by well diffusion assay as mentioned earlier ([Singh et al., 2014]). Strain A52 was grown for 24 h in 500 ml of nutrient broth (NB, Hi-media, India) using 1000 ml flask and subsequently cells were removed by centrifugation (10,000 rpm for 15 min at 4°C). Supernatant was filtered through 0.22 μm filter (Millipore, United States) to obtain cell-free fermented broth (CFB) that was used for antimicrobial assay (50 μl) against various indicator strains and the activity was measured as diameter of inhibition zone. Test strains used were Staphylococcus aureus (MTCC 1430), Bacillus subtilis (MTCC 121), B. firmus (MTCC 488), B. licheniformis (MTCC 429), B. thuringiensis (MTCC 1953), Escherichia coli (MTCC 1610), Micrococcus luteus (MTCC 106), Steptococcus pyrogens (MTCC 1928), S. anginosus (MTCC 1929), S. oralis (MTCC 2696), S. mutans (MTCC 497), Candida albicans (MTCC 1637), C. albicans (MTCC 183), C. albicans (MTCC 227), C. tropicalis (MTCC 184), C. glabrata (MTCC 3019), C. haemulonii (MTCC 2766), and C. inconsplicue (MTCC 1074). The phytopathogenic fungi employed in this study were Alternaria brassicicola (MTCC 2102), Colletotrichum acutatum (MTCC 1037), and Fusarium moniliforme (MTCC 158). Clinical isolates of Candida were provided by National Culture Collection of Pathogenic Fungi (NCCPF), PGIMER, Chandigarh, India.
(§2) The minimum inhibitory concentration (MIC) of HPLC purified peptides was evaluated by using microtiter plate dilution assay. The peptide concentration was estimated using BCA protein assay (Thermo Fisher Scientific, United States) method as described by manufacturer. Actively growing test strains (5 × 10^5 CFU/ml) were inoculated in a 96-well plate with different concentrations of the peptides and plates were incubated for 24–48 h at 37°C (final volume in each well is 200 μl). OD was measured at 600 nm after 24 and 48 h for bacteria and yeast, respectively, using ELISA microplate reader (Thermo, United States). MIC against phytopathogenic fungi was determined using 96-well microtiter plate assay ([Kaur et al., 2016]). In 96-well microplates, 100 μl of fungal spore suspension (1 × 10^5 spores/ml) prepared in potato dextrose broth (PDB, Hi-media, India) was mixed with100 μl of fresh PDB containing different concentrations of lipopeptide. Control well contained 100 μl of fungal spore suspension and 100 μl of only medium. The microplates were incubated at 25°C and readings were recorded at 600 nm after 48 h. The lowest concentration showing no growth was considered as MIC. Each test was done in triplicate and optical density (OD600) of peptide treated wells were compared with uninoculated wells (blank medium control).

[2] = system: C. inconsplicue MTCC 1074; experiment: MIC, microtiter plate dilution assay; type: cell-based; settings: 5 × 10^5 CFU/ml, 37°C, OD600 after 48 h, triplicate
Procedure: as §1, §2

[3] = system: C. parasilosis 450030 (clinical isolate); experiment: MIC, microtiter plate dilution assay; type: cell-based; settings: 5 × 10^5 CFU/ml, 37°C, OD600 after 48 h, triplicate
Procedure: as §1, §2

[4] = system: C. krusei 440009 (clinical isolate); experiment: MIC, microtiter plate dilution assay; type: cell-based; settings: Pichia kudriavzevii, 5 × 10^5 CFU/ml, 37°C, OD600 after 48 h, triplicate
Procedure: as §1, §2

C. haemulonii MTCC 2766 = experiment: MIC, microtiter plate dilution assay; type: cell-based; settings: Candidozyma haemuli, MTCC2766; 5 × 10^5 CFU/ml, 37°C, OD600 after 48 h, triplicate
Procedure: as §1, §2

[5] = system: C. tropicalis 420024 (clinical isolate); experiment: MIC, microtiter plate dilution assay; type: cell-based; settings: Candida tropicalis, 5 × 10^5 CFU/ml, 37°C, OD600 after 48 h, triplicate
Procedure: as §1, §2

C. tropicalis MTCC 184 = experiment: MIC, microtiter plate dilution assay; type: cell-based; settings: Candida tropicalis, MTCC184; 5 × 10^5 CFU/ml, 37°C, OD600 after 48 h, triplicate
Procedure: as §1, §2

[6] = system: C. haemulonii 470125 (clinical isolate); experiment: MIC, microtiter plate dilution assay; type: cell-based; settings: Candidozyma haemuli, 5 × 10^5 CFU/ml, 37°C, OD600 after 48 h, triplicate
Procedure: as §1, §2

[7] = system: C. rugos 470141 (clinical isolate); experiment: MIC, microtiter plate dilution assay; type: cell-based; settings: 5 × 10^5 CFU/ml, 37°C, OD600 after 48 h, triplicate
Procedure: as §1, §2

C. glabrata MTCC 3019 = experiment: MIC, microtiter plate dilution assay; type: cell-based; settings: Nakaseomyces glabratus, MTCC3019; 5 × 10^5 CFU/ml, 37°C, OD600 after 48 h, triplicate
Procedure: as §1, §2

[8] = system: C. aurius 470126 (clinical isolate); experiment: MIC, microtiter plate dilution assay; type: cell-based; settings: 5 × 10^5 CFU/ml, 37°C, OD600 after 48 h, triplicate
Procedure: as §1, §2

[9] = system: C. kefyr 410004 (clinical isolate); experiment: MIC, microtiter plate dilution assay; type: cell-based; settings: Kluyveromyces marxianus, 5 × 10^5 CFU/ml, 37°C, OD600 after 48 h, triplicate
Procedure: as §1, §2

C. albicans MTCC 1637 = experiment: MIC, microtiter plate dilution assay; type: cell-based, Candida albicans; settings: Candida albicans, MTCC1637; 5 × 10^5 CFU/ml, 37°C, OD600 after 48 h, triplicate
Procedure: as §1, §2

C. albicans MTCC 183 = experiment: MIC, microtiter plate dilution assay; type: cell-based, Candida albicans; settings: Candida albicans, MTCC183; 5 × 10^5 CFU/ml, 37°C, OD600 after 48 h, triplicate
Procedure: as §1, §2

C. albicans MTCC 227 = experiment: MIC, microtiter plate dilution assay; type: cell-based, Candida albicans; settings: Candida albicans, MTCC227; 5 × 10^5 CFU/ml, 37°C, OD600 after 48 h, triplicate
Procedure: as §1, §2

[10] = system: C. albicans 400054 (clinical isolate); experiment: MIC, microtiter plate dilution assay; type: cell-based, Candida albicans; settings: Candida albicans, 5 × 10^5 CFU/ml, 37°C, OD600 after 48 h, triplicate
Procedure: as §1, §2

[11] = system: A. brassicicola MTCC 2102; experiment: MIC against phytopathogenic fungi, 96-well microtiter plate assay; type: cell-based, Alternaria brassicicola; settings: Alternaria brassicicola, MTCC2102; 1 × 10^5 spores/ml in PDB, 25°C, OD600 after 48 h, triplicate
Procedure: (§3) The antimicrobial activity was tested by well diffusion assay as mentioned earlier ([Singh et al., 2014]). Strain A52 was grown for 24 h in 500 ml of nutrient broth (NB, Hi-media, India) using 1000 ml flask and subsequently cells were removed by centrifugation (10,000 rpm for 15 min at 4°C). Supernatant was filtered through 0.22 μm filter (Millipore, United States) to obtain cell-free fermented broth (CFB) that was used for antimicrobial assay (50 μl) against various indicator strains and the activity was measured as diameter of inhibition zone. […]
(§4) The minimum inhibitory concentration (MIC) of HPLC purified peptides was evaluated by using microtiter plate dilution assay. […] OD was measured at 600 nm after 24 and 48 h for bacteria and yeast, respectively, using ELISA microplate reader (Thermo, United States). MIC against phytopathogenic fungi was determined using 96-well microtiter plate assay ([Kaur et al., 2016]). […] The microplates were incubated at 25°C and readings were recorded at 600 nm after 48 h. […]

F. moniliforme MTCC 158 = experiment: as above; type: cell-based, Fusarium moniliforme; settings: Fusarium verticillioides, MTCC158; 1 × 10^5 spores/ml in PDB, 25°C, OD600 after 48 h, triplicate
Procedure: as §1
as §4, with “assay. The peptide concentration was estimated using BCA protein assay (Thermo Fisher Scientific, United States) method as described by manufacturer.” for “assay.”

[12] = system: skin of BALB/c female mice; experiment: Skin irritation study (Draize test); type: in vivo; settings: topical, about 1 cm^2 hairless dorsal skin, score 0 none, 1 slight, 2 moderate, 3 severe, mean
Procedure: Skin irritation potential of lipopetide based emulgel formulation was evaluated by carrying out skin irritancy test using 8 weeks old BALB/c female mice ([Draize et al., 1944]). Mice dorsal surface hair was removed without damaging the skin surface about 24 h prior to the experiment. Mice were divided into three groups (n = 3): […] Group II: plain gel (negative control); and Group III: […] emulgel. The formulation was topically applied to the hairless skin area (approximately 1 cm^2) and observations were recorded at 24, 48, and 72 h.

B. coagulans MTCC 492 = experiment: MIC, microtiter plate dilution assay; type: cell-based; settings: Heyndrickxia coagulans, MTCC492; 5 × 10^5 CFU/ml, 37°C, OD600 after 24 h, triplicate
Procedure: as §2

B. cereus MTCC 430 = experiment: MIC, microtiter plate dilution assay; type: cell-based; settings: Bacillus cereus, MTCC430; 5 × 10^5 CFU/ml, 37°C, OD600 after 24 h, triplicate
Procedure: as §2

B. subtilis MTCC 121 = experiment: MIC, microtiter plate dilution assay; type: cell-based, Bacillus subtilis; settings: Bacillus subtilis, MTCC121; 5 × 10^5 CFU/ml, 37°C, OD600 after 24 h, triplicate
Procedure: as §3, §4

S. pyogenes MTCC 1928 = experiment: MIC, microtiter plate dilution assay; type: cell-based; settings: Streptococcus pyogenes, MTCC1928; 5 × 10^5 CFU/ml, 37°C, OD600 after 24 h, triplicate
Procedure: as §1, §2

S. anginosus MTCC1929 = experiment: MIC, microtiter plate dilution assay; type: cell-based; settings: Streptococcus anginosus, MTCC1929; 5 × 10^5 CFU/ml, 37°C, OD600 after 24 h, triplicate
Procedure: as §1, §2

S. oralis MTCC 2696 = experiment: MIC, microtiter plate dilution assay; type: cell-based; settings: Streptococcus oralis, MTCC2696; 5 × 10^5 CFU/ml, 37°C, OD600 after 24 h, triplicate
Procedure: as §1, §2

S. mutans MTCC 497 = experiment: MIC, microtiter plate dilution assay; type: cell-based; settings: Streptococcus mutans, MTCC497; 5 × 10^5 CFU/ml, 37°C, OD600 after 24 h, triplicate
Procedure: as §1, §2

S. aureus MTCC 1430 = experiment: MIC, microtiter plate dilution assay; type: cell-based, Staphylococcus aureus; settings: Staphylococcus aureus, MTCC1430; 5 × 10^5 CFU/ml, 37°C, OD600 after 24 h, triplicate
Procedure: as §3, §4

E. coli MTCC 1610 = experiment: MIC, microtiter plate dilution assay; type: cell-based, Escherichia coli; settings: Escherichia coli, MTCC1610; 5 × 10^5 CFU/ml, 37°C, OD600 after 24 h, triplicate
Procedure: as §3, §4

M. luteus MTCC 106 = experiment: MIC, microtiter plate dilution assay; type: cell-based, Micrococcus luteus; settings: Micrococcus luteus, MTCC106; 5 × 10^5 CFU/ml, 37°C, OD600 after 24 h, triplicate
Procedure: as §3, §4

C[C@@H]1[C@H](O)[C@@H](C)/C=C/C=C/C=C/C=C/C=C/C=C/C=C/[C@H](O[C@@H]2O[C@H](C)[C@@H](O)[C@H](N)[C@@H]2O)C[C@@H]2O[C@](O)(C[C@@H](O)C[C@@H](O)[C@H](O)CC[C@@H](O)C[C@@H](O)CC(=O)O[C@H]1C)C[C@H](O)[C@H]2C(=O)O [Amphotericin B, reference compound]
MIC [1]: 100 µg/mL (≈ 108 µM)
MIC [2]: 10 µg/mL (≈ 10.8 µM)
MIC [3]: 50 µg/mL (≈ 54.1 µM)
MIC [4]: 5 µg/mL (≈ 5.41 µM)
MIC (C. haemulonii MTCC 2766): 100 µg/mL (≈ 108 µM)
MIC [5]: 50 µg/mL (≈ 54.1 µM)
MIC (C. tropicalis MTCC 184): 35 µg/mL (≈ 37.9 µM)
MIC [6]: 50 µg/mL (≈ 54.1 µM)
MIC [7]: 5 µg/mL (≈ 5.41 µM)
MIC (C. glabrata MTCC 3019): 25 µg/mL (≈ 27.1 µM)
MIC [8]: 5 µg/mL (≈ 5.41 µM)
MIC [9]: 50 µg/mL (≈ 54.1 µM)
MIC (C. albicans MTCC 1637): 5 µg/mL (≈ 5.41 µM)
MIC (C. albicans MTCC 183): 5 µg/mL (≈ 5.41 µM)
MIC (C. albicans MTCC 227): 5 µg/mL (≈ 5.41 µM)
MIC [10]: 5 µg/mL (≈ 5.41 µM)
MIC [11]: 50 µg/mL (≈ 54.1 µM)
MIC (F. moniliforme MTCC 158): 50 µg/mL (≈ 54.1 µM)

OC(Cn1cncn1)(Cn1cncn1)c1ccc(F)cc1F [Fluconazole]
MIC [2]: 50 µg/mL (≈ 163 µM)
MIC [3]: 10 µg/mL (≈ 32.7 µM)
MIC [4]: 1 µg/mL (≈ 3.27 µM)
MIC [7]: 5 µg/mL (≈ 16.3 µM)
MIC (C. albicans MTCC 183): 20 µg/mL (≈ 65.3 µM)
MIC (F. moniliforme MTCC 158): 10 µg/mL (≈ 32.7 µM)

CCCCCCCCCCCCOS(=O)(=O)[O-].[Na+] [Positive Control, sodium lauryl sulfate]
Erythema score (n=3), 0 h [12]: 0
Erythema score (n=3), 24h [12]: 3
Erythema score (n=3), 48h [12]: 3
Erythema score (n=3), 72h [12]: 3

CC1(C)S[C@@H]2[C@H](NC(=O)[C@H](N)c3ccccc3)C(=O)N2[C@H]1C(=O)O [Ampicillin, reference compound]
MIC (B. coagulans MTCC 492): 0.5 µg/mL (≈ 1.43 µM)
MIC (B. cereus MTCC 430): 0.5 µg/mL (≈ 1.43 µM)
MIC (B. subtilis MTCC 121): 0.5 µg/mL (≈ 1.43 µM)
MIC (S. pyogenes MTCC 1928): 0.03 µg/mL (≈ 0.0859 µM)
MIC (S. anginosus MTCC1929): 0.25 µg/mL (≈ 0.715 µM)
MIC (S. oralis MTCC 2696): 0.4 µg/mL (≈ 1.14 µM)
MIC (S. mutans MTCC 497): 0.4 µg/mL (≈ 1.14 µM)
MIC (S. aureus MTCC 1430): 0.25 µg/mL (≈ 0.715 µM)
MIC (E. coli MTCC 1610): 1 µg/mL (≈ 2.86 µM)
MIC (M. luteus MTCC 106): 0.2 µg/mL (≈ 0.572 µM)
